Usually EC50 stands for the concentration at which the effect is half-maximal.

The target in one test is Induced myeloid leukemia cell differentiation protein Mcl-1 (Homo sapiens, UniProt Q07820). The experiment in a line: Mcl-1/Bim interaction regulators – biochemical, bead-based flow cytometry, multiplexed, human, dose response (AID 1329).
Induced myeloid leukemia cell differentiation protein Mcl-1, sequence (Q07820 whole entry): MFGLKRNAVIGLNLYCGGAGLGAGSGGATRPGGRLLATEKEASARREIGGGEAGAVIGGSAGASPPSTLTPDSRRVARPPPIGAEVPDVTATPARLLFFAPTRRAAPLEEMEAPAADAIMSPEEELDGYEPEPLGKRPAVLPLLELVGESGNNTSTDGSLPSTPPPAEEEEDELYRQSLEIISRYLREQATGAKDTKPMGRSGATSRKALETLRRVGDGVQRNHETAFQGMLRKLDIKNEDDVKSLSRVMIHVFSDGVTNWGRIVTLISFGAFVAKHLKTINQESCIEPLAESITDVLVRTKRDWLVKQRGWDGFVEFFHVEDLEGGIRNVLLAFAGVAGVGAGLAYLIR
Conditions: not given
(Flow cytometry measures light scatter and fluorescence of single cells or particles in a stream.)
`CN1CCc2cccc3c2[C@@H]1Cc1ccc(O)c(O)c1-3` came in with an EC50 of 38.6 µM.
For the molecule `CCC(/C=C1\Sc2ccc(OC)cc2N1CCO)=C\c1sc2ccc(OC)cc2[n+]1CCO`, the response was half-maximal at 19.3 µM (EC50). Compared with the last molecule, the EC50 is about 2-fold lower.
`Cc1nc2ncccn2c1-c1csc(Nc2ccc(O)cc2)n1` showed an EC50 of 0.39 µM.
Take `c1ccc(-c2nc(N3CCOCC3)[s+]n2-c2ccccc2)cc1`: the EC50 was found to be 9.74 µM.
Molecule `COc1cc(CN=Nc2nn3cnnc3c3ccccc23)ccc1O` [(4E)-2-methoxy-4-[[2-([1,2,4]triazolo[3,4-a]phthalazin-6-yl)hydrazinyl]methylidene]cyclohexa-2,5-dien-1-one] yielded an EC50 of 5.05 µM. This EC50 lies about 1.9-fold lower than the previous one.
Same read-out and setting: the same measure for `COc1cccc2c(SCC(=O)NN=Cc3ccc(O)cc3O)cc(C)nc12` [N'-[(E)-(2-hydroxy-4-oxo-1-cyclohexa-2,5-dienylidene)methyl]-2-[(8-methoxy-2-methyl-4-quinolinyl)thio]acetohydrazide]: 29 µM; for `COc1cc(C=NNC(=O)CN(Cc2ccco2)S(=O)(=O)c2ccccc2)ccc1O` [N-(2-furanylmethyl)-N-[2-[[(E)-(3-methoxy-4-oxo-1-cyclohexa-2,5-dienylidene)methyl]hydrazo]-2-oxoethyl]benzenesulfonamide]: 11.4 µM; for `Cc1ccc(-c2nc(N3CCOCC3)s[n+]2-c2ccccc2)cc1` [SMR000225370]: 2.04 µM.
Molecule `Nc1c(C(=O)NCC2CCCO2)sc2nc3c(c(-c4ccco4)c12)CC/C3=C\c1ccco1` (stereo unspecified) [SMR000259502] displayed an EC50 of 6 µM.
Still for that read-out and setting: the same measure for `Nc1c(C(=O)NC2CC2)sc2nc3c(c(-c4ccco4)c12)CC/C3=C/c1ccco1` [SMR000259554]: 5.86 µM; for `Cc1nnc2ccc(-c3cccc(NC(=O)c4ccco4)c3)nn12` [SMR000324305]: 5.76 µM; for `CCN1/C(=C/C(C)=C/c2sc3ccccc3[n+]2CC)Sc2ccccc21` [SMR000354813]: 41.2 µM.

The same test, now with this note: inactive by the depositor's call.
Molecule `CCOCCCNc1nc(S)nc2cc(OC)c(OC)cc12` registered an EC50 of 2.54 µM.
Same read-out and setting: to `COCCNc1[nH]c(=S)nc2cc(OC)c(OC)cc12` belongs 4.54 µM; to `CN1CCN(C2=C(Cl)C(=O)C(c3cnc(N4CCCCC4)s3)=C(Cl)C2=O)CC1`, 0.7 µM; to `CCOC(=O)c1ccc(Nc2nc(C(=O)OCC)nc3ccccc23)cc1`, 4.52 µM.
`CCOCCCn1c(N)c(C(=O)Nc2sc3c(c2C(=O)OC)CCCC3)c2nc3ccccc3nc21` showed a half-maximal effective concentration (EC50) of 1.85 µM.
`CCN1C(=O)/C(=C/C=C2\C=CN(CC)c3ccccc32)SC1=S` yielded an EC50 of 15.8 µM.
Molecule `Cc1ccc(-c2ccc(/C=C/C(=O)c3ccccc3)o2)cc1` gave an EC50 of 13.2 µM.
On the same count and under the same terms, the same measure for `O=S1(=O)N=C(N(CCO)N=C/C=C/c2ccccc2)c2ccccc21`: 20.9 µM; for `COc1ccc(-n2c(=O)c3ccccc3c3ccccc3c2=O)c(OC)c1`: 26.9 µM.
In turn, `COc1cc2nc(=S)n(CCCN3CCOCC3)c(N)c2cc1OC` displayed an EC50 of 6.14 µM.
The same measure, in the same setting: to `CN(C)c1ncc(C2=C(Cl)C(=O)C(N3CCCC3)=C(Cl)C2=O)s1` belongs 3.71 µM; to `O=C(Nc1ccc2nc(-c3ccco3)c(-c3ccco3)nc2c1)N1CCN(c2ccccn2)CC1`, 10.9 µM.
`O=C(c1ccccc1)c1ccc2nc(-c3ccco3)c(-c3ccco3)nc2c1` showed an EC50 of 45.4 µM.
For `COCCNC(=S)Nc1cc(OC)c(OC)cc1C#N` [1-(2-cyano-4,5-dimethoxy-phenyl)-3-(2-methoxyethyl)thiourea], a half-maximal response (EC50) required 7.11 µM. This EC50 lies about 6.4-fold lower than the previous one.
In turn, `Cc1ccc(C(=O)/C=C/c2ccc(-c3ccc(C)cc3)o2)cc1` [1-p-Tolyl-3-(5-p-tolyl-furan-2-yl)-propenone] returned an EC50 of 2.61 µM.
For `O=C(NCc1ccccc1)c1ccc2nc(-c3ccco3)c(-c3ccco3)nc2c1` [2,3-bis(furan-2-yl)-N-(phenylmethyl)quinoxaline-6-carboxamide], it took 7.82 µM to reach a half-maximal effect (EC50).
The same measure, in the same setting: to `O=C(Nc1ccccc1)c1ccc2nc(-c3ccco3)c(-c3ccco3)nc2c1` [2,3-di-2-furyl-N-phenyl-6-quinoxalinecarboxamide] belongs 39.6 µM; to `O=C(CSc1ccc2nnc(-c3ccccn3)n2n1)Nc1nccs1` [2-[[3-(2-pyridinyl)-[1,2,4]triazolo[4,3-b]pyridazin-6-yl]thio]-N-(2-thiazolyl)acetamide], 11.8 µM.
`O=C(/C=C/c1ccccc1Cl)c1ccccc(=O)c1O` [3-[(E)-3-(2-chlorophenyl)prop-2-enoyl]-2-oxidanyl-cyclohepta-2,4,6-trien-1-one] returned an EC50 of 19.4 µM. This EC50 is about 1.6-fold higher than that of the molecule before.
On the same count and under the same terms, to `Cc1nc2ncccn2c1-c1csc(Nc2ccccc2)n1` [4-(2-methyl-3-imidazo[1,2-a]pyrimidinyl)-N-phenyl-2-thiazolamine] belongs 8.97 µM; to `Cc1cc(C)nc(SCc2cc(=O)c(OC(=O)c3ccc(Cl)c([N+](=O)[O-])c3)co2)n1` [4-chloro-3-nitrobenzoic acid [6-[[(4,6-dimethyl-2-pyrimidinyl)thio]methyl]-4-oxo-3-pyranyl] ester], 5.92 µM; to `COc1cc2nc(=S)[nH]c(NCC3CCCO3)c2cc1OC` (stereo unspecified) [6,7-dimethoxy-4-(2-oxolanylmethylamino)-1H-quinazoline-2-thione], 1.9 µM.
The same measure, in the same setting: the same measure for `COc1ccc(C2=Nn3c(nnc3-c3ccco3)SC2)cc1OC` [6-(3,4-Dimethoxy-phenyl)-3-furan-2-yl-7H-[1,2,4]triazolo[3,4-b][1,3,4]thiadiazine]: 2.94 µM; for `CN(N=C/C=C/c1ccccc1)C1=NS(=O)(=O)c2ccccc21` [(1E,2E)-3-phenylacrylaldehyde (1,1-dioxido-1,2-benzisothiazol-3-yl)(methyl)hydrazone]: 5.53 µM; for `O=C1/C(=C\c2ccc(-c3ccccc3Cl)o2)SC(=S)N1CC1CCCO1` (stereo unspecified) [(5E)-5-[[5-(2-chlorophenyl)furan-2-yl]methylidene]-3-(oxolan-2-ylmethyl)-2-sulfanylidene-1,3-thiazolidin-4-one]: 2.14 µM.
In turn, `O=C(/C=C\c1ccc(-c2ccccc2)o1)c1ccccc1` [(Z)-1-phenyl-3-(5-phenyl-2-furanyl)-2-propen-1-one] yielded an EC50 of 20.7 µM.
Turning to `Cc1cc(-c2nnc3n2N=C(c2ccc(-c4ccccc4)cc2)CS3)[nH]n1` [MLS000082991], the EC50 came out at 9.39 µM.
With `Cc1cc2n(c1)CCn1c(C)ccc1-2` [MLS000104384], a half-maximal response (EC50) required 21 µM.
Molecule `Clc1nc(NCc2cccnc2)nc(N2CCOCC2)n1` [MLS000121154] showed an EC50 of 16.9 µM.
In the case of `CCCCNc1[nH]c(=S)nc2cc(OC)c(OC)cc12` [MLS000520261], the midpoint of the response, the EC50, lay at 1.04 µM.
Same read-out and setting: the same measure for `COCCCn1c(N)c(C(=O)Nc2sc3c(c2C(=O)OC)CCCC3)c2nc3ccccc3nc21` [MLS000595323]: 3.12 µM; for `COc1cc2nc(=S)[nH]c(NCCc3ccc(S(N)(=O)=O)cc3)c2cc1OC` [MLS000674601]: 0.36 µM; for `COc1ccc(C)cc1-n1c(=O)c2ccccc2c2ccccc2c1=O` [MLS000682999]: 16 µM.
Molecule `Fc1ccc(C2=Nc3cccc4cccc(c34)N2)cc1` [MLS000687139] showed a 50% effective concentration (EC50) of 10.5 µM.
Consider `Cc1ccnc(SCc2cc(=O)c(OC(=O)c3ccc(Cl)c([N+](=O)[O-])c3)co2)n1` [MLS000696790], for which a half-maximal effect (EC50) was put at 39.5 µM.
`COc1ccc(/C=C/C(=O)c2cc(Br)ccc(=O)c2O)cc1` [MLS000702099] yielded an EC50 of 33.2 µM.
The molecule `CCOC(=O)c1c(O)nc2ccc(Cl)c3c2c1-c1ccccc1C3=O` [MLS000704595] registered an EC50 of 9.29 µM.
Same read-out and setting: to `c1ccc(Nc2cccc(Nc3ccccc3)n2)cc1` [N,N'-diphenyl-2,6-pyridinediamine] belongs 12.2 µM.
On to `Cc1cccc(OCC(=O)NCC(=O)NN=Cc2cc(Br)ccc2OCc2ccccc2)c1` [N-[(5-bromanyl-2-phenylmethoxy-phenyl)methylideneamino]-2-[2-(3-methylphenoxy)ethanoylamino]ethanamide], for which the EC50 worked out at 7.78 µM.
Same read-out and setting: the same measure for `COCCCNc1nc(S)nc2cc(OC)c(OC)cc12` [SMR000026607]: 1.74 µM.
For the molecule `Cc1cc2nn(-c3cccc4ccccc34)nc2cc1N` [SMR000076237], it took 1.75 µM to reach a half-maximal effect (EC50).
`C#CCn1cc(C=C2C(=O)c3ccccc3C2=O)c2ccccc21` [SMR000196125] gave an EC50 of 16.3 µM. This EC50 is about 9.3-fold higher than that of the molecule before.
The molecule `CN(N=Cc1cccnc1)C1=NS(=O)(=O)c2ccccc21` [SMR000207578] yielded an EC50 of 20.6 µM.
The molecule `Cc1ccc(C=NNC(=O)CSc2nnc(-c3ccc(Cl)cc3)n2-c2ccccc2)o1` [SMR000218122] registered an EC50 of 5.71 µM.
Take `COc1ccc(OC)c(-n2c(=O)c3ccccc3c3ccccc3c2=O)c1` [SMR000236434]: the EC50 amounted to 16.7 µM.
Molecule `O=C1c2ccccc2-c2onc3ccc(N4CCCC4)c1c23` [SMR000279741] gave a concentration for a half-maximal effect (EC50) of 69.7 µM. Compared with the last molecule, the EC50 is about 4.2-fold higher.
In turn, `Cc1ccnc(Nc2nc(-c3c(C)nc4sccn34)cs2)c1` [[4-(6-Methyl-imidazo[2,1-b]thiazol-5-yl)-thiazol-2-yl]-(4-methyl-pyridin-2-yl)-amine] showed an EC50 of 16.7 µM.
The same measure, in the same setting: to `CCOC(=O)c1nc(Nc2ccc(C(=O)OC)cc2)c2ccccc2n1` [ethyl 4-(4-methoxycarbonylanilino)quinazoline-2-carboxylate] belongs 14.7 µM; to `CN(N=Cc1ccncc1)C1=NS(=O)(=O)c2ccccc21` [isonicotinaldehyde (1,1-dioxido-1,2-benzisothiazol-3-yl)(methyl)hydrazone], 2.74 µM.
